We go through 87 molecules from a melting point compilation (Tetko et al.; mined from patent text by program, amines drawn as free bases though some values may be those of a salt).

Starred links: 1 amine or outer side, 2 acyl side, 3 side chain; linkers in the order of their positions; H or OH if unused. Residues, ends and D or L forms follow the SMILES beside them. *: point of attachment. βAsp = O=C(O)[CH](CC(=O)[*:2])N[*:1]; Bz = O=C(c1ccccc1)*

`O=C(O)c1ccc([N+](=O)[O-])cn1` displayed a melting point of 210 to 211 °C.

On to `O=S(=O)(Nc1ccc2c(OCc3cccc(-c4cc(Cl)cc(Cl)c4)c3)cccc2c1)C(F)(F)F`, for which the melting point fell in the range of 142 to 143 °C.

The molecule `CCOC(=O)c1ccc(N)c(C)c1` returned a melting point of 76 to 77 °C.

`COc1ncccc1-c1cccn2nc(Cl)nc12` registered a melting point of 218 to 219 °C.

`CC(Cc1ccc(OCc2ccccc2)cc1)C(=O)O` (configuration not stated): the melting point was 93 to 95 °C.

In turn, `CCOc1nn2c(-c3ccccc3Br)nnc2c2ccccc12` yielded a melting point of 157 to 158 °C.

In the case of `O=C(O)c1sc(-c2ccc(Cl)cc2)nc1C(F)(F)F`, the melting point lay in the range of 235 to 250 °C.

For the molecule `Cc1cc2c(cc1C)CC(=O)NC=C2`, the melting point lay within 220 to 224 °C.

For the molecule `CCOC(=O)CCNC=C(C(=O)OCC)C(=O)c1cc(F)c(F)c(F)c1F`, the melting point was in the range of 96 to 97 °C.

On to `COC(=O)c1sc2cc(OC)ccc2c1C`, for which the melting point was in the range of 118 to 120 °C.

As to `FC(F)(F)c1cn2c(c1-c1ccccc1)CCC2`, the melting point stood at 154 °C.

Molecule `COCC[C@H]1CN(c2cc(C)cc3c2C=Nc2ccccc2N3)CCN1C` returned a melting point of 100 to 108 °C.

Consider `CCCCc1nc(Cl)c(COC)n1Cc1ccc(-c2ccccc2Cc2nnn[nH]2)cc1`, for which the melting point fell in the range of 149 to 152 °C.

For `COc1ccc2c(c1)C(=O)N(CCN(C)CCN1C(=O)c3cc(OC)ccc3C(C)(C)C1=O)C(=O)C2(C)C`, the melting point lay within 150 to 151 °C.

As to `COC(=O)c1cn(-c2ccnc3ccccc23)c2cc(F)ccc12`, the melting point is 186 °C.

The molecule `CCc1nc(/C=C/c2cn(-c3ccccc3)nc2O)co1` displayed a melting point of 157 to 159 °C.

Molecule `O=c1n(CCCCl)nc2n1-c1ccccc1OC2` returned a melting point of 77 to 78 °C.

The molecule `COc1ccc(OC)c(Nc2ncc(C(=O)O)c(=O)[nH]2)c1` gave a melting point of 260 to 262 °C.

In turn, `COc1cccc2c1Sc1ccc(C(C)C(N)=O)cc1C(=O)C2` (configuration not stated) had a melting point of 210 to 211 °C.

In turn, `CC(=O)Nc1nc2c(Oc3cc(-c4ccc(Br)cc4)ncn3)cccc2s1` had a melting point of 271 to 272 °C.

Molecule `O=C(O)c1cccc2cc(Oc3cc(Cl)ncn3)ccc12` showed a melting point of 194 to 195 °C.

`CS(=O)CC(=O)c1cccn1Cc1ccccc1` (configuration not stated) came in with a melting point of 95 to 97 °C.

Molecule `CCC1N=C(c2ccccc2Cl)c2cc(CC(=O)OC)sc2NC1=O` (configuration not stated) displayed a melting point of 202 to 204 °C.

`COCc1c(-c2csc(C)n2)ncc2c1c1cc(OCc3ccccc3)ccc1n2S(=O)(=O)c1ccc(C)cc1`: the melting point was in the range of 173 to 175 °C.

In turn, `CC(=O)Oc1ccccc1C(=O)CNc1c(C(=O)O)[nH]c2cc(Cl)ccc12` came in with a melting point of 184 to 186 °C.

As to `CCN(CC#N)S(=O)(=O)Cc1cccc(C(F)(F)F)c1`, the melting point lay within 67 to 68.5 °C.

`O=C1N(Cc2ccccn2)c2ccccc2C12COc1cc3c(cc12)OCCO3` (configuration not stated) registered a melting point of 144 to 146 °C.

Take `COc1ccc(-c2ccc(C(=O)O)cn2)cc1`: the melting point was 252 to 253 °C.

In turn, `CCc1cc2cc(O)ccc2c(Oc2ccc(/C=C/C(=O)N3CCN(C)CC3)cc2)c1-c1ccccc1` came in with a melting point of 195 to 196 °C.

Molecule `CC(NC(=O)CC(NC(=O)c1ccccc1)C(=O)O)C(=O)N1CCCC1C(=O)O` (stereo not drawn) ({Bz-βAsp}-Ala-Pro-OH; configuration not given here) showed a melting point of 110 °C.

On to `Cc1cc(C=Cc2ccccc2OCC2CO2)on1` (configuration not stated), for which the melting point was in the range of 99 to 100 °C.

In turn, `CCCCC=C1SC(=S)N(N=c2sc3ccccc3s2)C1=O` came in with a melting point of 210 to 212 °C.

Consider `CCCC(=O)c1cnc2c(OC)cccc2c1Nc1ccsc1CC`, for which the melting point is 119 to 121 °C.

For the molecule `CO[C@H]1CN(c2c(F)c(N)c3c(=O)c(C(=O)O)cn(C4CC4)c3c2F)C[C@H]1N` (relative stereo), the melting point lay in the range of 222 to 223 °C.

In turn, `CCOC(=O)NC(=S)OCc1ccc(Cl)cc1` had a melting point of 95 °C.

The molecule `COc1ccc(Oc2ccc(C(=O)N(C(C)C)C3CCCCC3)cc2)cc1` yielded a melting point of 81.7 °C.

Take `CCn1c(=O)c2c(nc(/C=C/c3cccc(C(C)=O)c3)n2C)n(CC)c1=O`: the melting point was 221 to 222 °C.

Turning to `CON=C(C(=O)O)c1nsc(NC(=O)OCc2ccccc2)n1`, the melting point is 138 to 142 °C.

With `CCN(CC)CCN1C(=O)Nc2ncccc2C1c1ccccc1` (configuration not stated), the melting point fell in the range of 160 to 162 °C.

With `CS(=O)(=O)Nc1cc(N2C(=O)C3=C(CCCC3)C2=O)c(F)cc1C#N`, the melting point was determined as 113 °C.

Consider `N#Cc1c2c(c3c(c1N1CCCC1)Cc1ccccc1-3)-c1ccccc1C2`, for which the melting point lay in the range of 206 to 208 °C.

As to `Cc1c(-c2ccc(O)cc2)n(Cc2ccc(OCCN3CCCC3)cc2)c2ccc(O)cc12`, the melting point is 105 to 110 °C.

`COc1cc2c(cc1OCc1ccccc1)C(C1(c3ccccc3OC)CC1)N(C)CC2` (configuration not stated) registered a melting point of 118 °C.

For `CC[C@H](C)[C@H](OCc1cc(F)cc(F)c1)[C@H]1[C@H]([N+](=O)[O-])[C@H](c2ccccc2)N[C@@H]1C(=O)NCC(=O)O`, the melting point is 140 to 141 °C.

Take `Cn1nc(-c2ccccc2)nc1-c1ccccc1CO`: the melting point amounted to 122 °C.

Molecule `CC(C)n1c(/C=C/[C@H]2C[C@H](CC(=O)OC(C)(C)C)OC(C)(C)O2)c(-c2ccc(F)cc2)c(-c2ccccc2)c1C(N)=O` registered a melting point of 73 to 75 °C.

In turn, `COc1cc(C(=O)N2Cc3cccn3Cc3ccccc32)ccc1[N+](=O)[O-]` gave a melting point of 191 to 192 °C.

Take `CCOc1nc2cccc(C(=O)OC)c2n1Cc1ccc(-c2ccccc2-c2nc(=O)o[nH]2)cc1`: the melting point was 186 to 187 °C.

Take `N#Cc1ccc(N(Cc2ccc(OS(N)(=O)=O)cc2)n2cnnc2)cc1-c1ccc(F)cc1`: the melting point was 197 to 199 °C.

`COc1ccc(-c2coc3ccc(-c4nnc(SCc5cccc(Cl)c5)o4)cc23)cc1` returned a melting point of 155 to 156 °C.

Turning to `COc1ccc(-c2ccc(C)c(OCC(OC)OC)c2)cc1`, the melting point was in the range of 39 to 40 °C.

`CCCC12CCC(c3ccc(Cl)cc3)(OC1)OC2` came in with a melting point of 94 °C.

On to `N#Cc1cccc(NC(=O)NC2N=C(c3ccccc3F)c3ccccc3N(CC(=O)N3CC4CCC(CC4)C3)C2=O)c1` (racemic), for which the melting point lay within 188 to 195 °C.

`CCOc1ccccc1C=[N+]([O-])C(C)C` showed a melting point of 59.4 °C.

As to `O=C(Nc1cc(-c2nc(-c3ccco3)no2)ccc1Cl)OCC(Cl)(Cl)Cl`, the melting point was 114 to 116 °C.

Turning to `COc1ccc(C(=O)c2c(N)sc3c2CCN(C(=O)c2ccccc2)C3)cc1OC`, the melting point fell in the range of 143 to 145 °C.

`CCOc1ccccc1OCC(O)CNCCNc1cnn(C)c(=O)c1Cl` (configuration not stated) displayed a melting point of 120 °C.

As to `Cc1cccc(-c2nc(-c3ccc(S(C)(=O)=O)cc3)sc2-c2ccnc(S(=O)(=O)c3ccccc3)c2)c1`, the melting point fell in the range of 126 to 128 °C.

Molecule `Nc1nc2ccc(CO)cc2o1` displayed a melting point of 148 to 150 °C.

For `Cc1cccc(C(=O)N(C)C)c1N`, the melting point was 95 to 96 °C.

In turn, `O=C1N(Cc2cc3cccc(F)c3o2)c2ccccc2C12COc1cc3c(cc12)CCO3` (configuration not stated) registered a melting point of 192 to 193 °C.

Consider `BrCCCCCCCCCCn1c2ccccc2c2ccccc21`, for which the melting point lay within 38 to 40 °C.

Molecule `NCCCCn1cnc(-c2ccc(F)cc2)c1` displayed a melting point of 138 to 140 °C.

Regarding `CS(=O)(=O)c1ccc(-c2cnn(CC(F)(F)F)c(=O)c2NCC2CC2)cc1`, the melting point fell in the range of 145 to 146 °C.

In the case of `COC(=O)CCC1=C(C)C2=NC1(CCC(=O)OC)C(C)C1(CCC#N)NC(C)(C=C3C=CC(=N3)C=c3ccc([nH]3)=C2)C(CCC#N)=C1C` (configuration not stated), the melting point is 201 to 205 °C.

For the molecule `COC(=O)C1=CCC(=C2CCC3=C(N=C(C(C)C)C(C(C)C)N3)C2=O)C=C1` (configuration not stated), the melting point lay within 100 to 102 °C.

As to `CO[C@@H]1CN(CCC#N)CC[C@@H]1NC(=O)c1cc(Cl)c(N)c2c1OCC2` (relative stereo), the melting point turned out to be 191 °C.

Molecule `CC1CC(N)=NN1c1nc2ccccc2s1` (configuration not stated) came in with a melting point of 212 to 215 °C.

With `CC(C)(C)c1cc(CCc2ccccc2NC(=O)N2CCC3(CC2)OCCO3)cc(C(C)(C)C)c1O`, the melting point was in the range of 163 to 164 °C.

With `O=C(O)c1cn(Cc2ccccc2)c2cc(Cl)c(F)cc2c1=O`, the melting point was 250 °C.

Take `CSC(=C[N+](=O)[O-])NCCCCc1ccccn1`: the melting point was found to be 78 °C.

In turn, `O=C1CCCCN1C1=CC(CF)(CF)Oc2ccc(C(F)(F)F)cc21` came in with a melting point of 166 to 168 °C.

In turn, `Cc1ncccc1Cn1nnnc1-c1cc(Cl)ccc1Cl` came in with a melting point of 172 to 174 °C.

Take `CCCn1cc2c(n1)c(N)nc1ccccc12`: the melting point was in the range of 225 to 227 °C.

As to `CSc1sc(-c2ccccn2)c2c1-c1oncc1C(C)(C)C2`, the melting point is 153 to 155 °C.

For `O=C1CCCc2c1ccc1c2OCO1`, the melting point fell in the range of 132 to 136 °C.

In the case of `CN1CC2CC1CN2c1ccc(NC=C2C(=O)NC(=O)c3ccc(I)cc32)cc1` (configuration not stated), the melting point is 210 to 211 °C.

As for `C=CCOc1cc(O)c(C#N)c(Cl)c1`, the melting point is 175 to 176 °C.

`O=C(Nc1ccccc1)O[C@@H]1CN=C(c2ccoc2)O[C@H]1c1ccccc1` (racemic) came in with a melting point of 130 °C.

On to `CCS(=O)(=O)c1cc(C(=O)NCC2CCCN2CCC2CC2)c(OC)cc1N` (configuration not stated), for which the melting point was found to be 209 °C.

For `COc1ccc2c(c1)N(CCCCl)c1cccc(S(C)(=O)=O)c1S2`, the melting point was in the range of 122 to 124 °C.

For `N#Cc1ccc(NC(=O)NCCCN2CCN(CCCc3ccc(Cl)cc3)CC2)cc1`, the melting point was in the range of 219 to 221 °C.

For `CN1CCC2(C)c3cc(OC(=O)OC(C)(C)C)cc(Br)c3N(C)C12` (configuration not stated), the melting point lay within 146 to 148 °C.

Regarding `COC(=O)c1cc2c3c(Cl)cc(Cl)cc3n(C)c2s1`, the melting point lay within 231 to 232 °C.

For `CC(=O)NC[C@H]1CN(c2ccc(N3CCC(n4ncnn4)CC3)c(F)c2)C(=O)O1`, the melting point is 186 to 188 °C.

The molecule `c1c(NC2CCCC2)nc(NC2CCCC2)nc1N1CCNCC1` had a melting point of 142 to 148 °C.

The molecule `CS(=O)(=O)c1cc(C(O)C2CCCCC2)c2ccccc2n1` (configuration not stated) displayed a melting point of 83 °C.
